For series [1] the following is noted: human, in vivo.
The conditions of series [2]: in vivo.
For series [3] the following is noted: rat, in vivo; cited from earlier work.
The subject of series [4] is visceral hyperalgesia. As to conditions: animal models of IBS; cited from earlier work.
For series [5] the following is noted: rat, in vivo; cited from earlier work. This is another data set of the same source.
For series [6] the following is noted: dog, in vivo.
The conditions of series [7]: rat, in vivo.

Like-named read-outs stand apart in the source and are kept apart here.

As for “cyclo ( [Asn(β--D-2-deoxy-2-acetamido-Glc)-Asp-Trp-Phe-Dap-Leu]cyclo(2β--5β-)) [nepadutant]”, the oral bioavailability in series [1] and in series [3] was 1% in each case. In addition, the Maximum bioavailability in series [2] is given as at most 2%; in series [6] it was at most 2%; in series [7] it was at most 20%. For the same substance, the visceral hyperalgesia entry in series [4] is listed as “corrects visceral hyperalgesia”. The absoption in series [5] is reported as above 80%.

(Values after patent EP1297826A1, “Nasal pharmaceutical compositions containing a NK-2 antagonist” (Menarini Ricerche S.p.A., priority 2001, dated 2003).)
